Values of other authors, collected in PMC11054271, “ABCG2 Transports the Flukicide Nitroxynil and Affects Its Biodistribution and Secretion into Milk” (Pharmaceutics, 2024).

Tested on: Abcg2
Parameters: method as in PMID 34062171
Conditions: mice; cited from earlier work

## Cc1c(Cl)cccc1Nc1ccccc1C(=O)O [tolfenamic acid]
  Testis accumulation, fold higher in Abcg2−/− compared to wild-type: ~3 fold
